The values that follow come from patent US20090042946A1, “METHOD AND KIT FOR C[…]” (priority 2003, published 2009).

The assay deals with severed left femoral artery. In words: Severed femoral artery bleeding model in anesthetized mice, topical VRA by cotton-tipped applicator. The assay is classed as in vivo. On the procedure:
Approximately 4 to 6 week old white mice weighing about 20 grams were anesthetized using 50 microliters of anesthetic (ketamine+xylazine) intraperitoneally. The area near the inguinal region (1.75 cm proximal to the ankle) was shaved and a 0.5 to 1 cm incision was made such that the left femoral artery was severed. The incision was washed with normal saline. Control animals were treated with saline while test animals were treated with a VRA (alvinil) (approx. 500 microliters of a 0.8 mmol solution) administered topically with a cotton-tipped applicator soaked with the VRA solution over the wound. The applicator was then removed after 5 seconds and the wound was evaluated for signs of hemorrhage.
In the control mice, the wound was continuously flushed with saline.
In the treatment group of animals, the wound was treated with arvinil by swab application, then flushed once with saline. […] After 10 minutes, a second incision was made in the femoral artery above the previous cut resulting in severe hemorrhage.

Structures are written as SMILES.

For `CCCCC/C=C\C/C=C\C/C=C\C/C=C\CCCC(=O)NCc1ccc(O)c(OC)c1` [arvinil], under “during the course of the experiment after topical treatment of the severed femoral artery”, the signs of shock entry is on record as “No signs of shock”. The “heart perfusion at euthanasia (KCl heart puncture)” value (end of experiment after topical treatment of both cuts) is “fully perfused”. For the same compound, where the note is “second incision above the previous cut after 10 minutes caused severe hemorrhage, topical application to the second cut”, the “bleeding from second incision in femoral artery after application” value is recorded as “cessation of bleeding”. Further, under “swab application, approx. 500 microliters of 0.8 mmol solution, applicator removed after 5 seconds, observed following one saline flush”, the “bleeding from severed femoral artery after treatment” value is given as “No bleeding was observed”.
